The values that follow come from patent publication US8519137B2, “Heteroaryl amides useful as inhibitors of voltage-gated sodium channels” (Vertex Pharmaceuticals Incorporated, priority 2007, dated 2013).

Structures are written as SMILES. Like-named read-outs stand apart in the source and are kept apart here.

For test [1], the target named is T1, NaV1.3 (Homo sapiens, UniProt Q9NY46). Kind of test: VIPR optical membrane potential assay, NaV 1.3 inhibition. The test is classed as cell-based. To be noted: activity against NaV 1.3 channel. More on the design: expressed in transfected cells; host or cells: HEK293. The method, then: (§1) Compounds of the invention are useful as antagonists of voltage-gated sodium ion channels. Antagonist properties of test compounds were assessed as follows. Cells expressing the NaV of interest were placed into microtiter plates. After an incubation period, the cells were stained with fluorescent dyes sensitive to the transmembrane potential. The test compounds were added to the microtiter plate. The cells were stimulated with either a chemical or electrical means to evoke a NaV dependent membrane potential change from unblocked channels, which was detected and measured with trans-membrane potential-sensitive dyes. Antagonists were detected as a decreased membrane potential response to the stimulus. The optical membrane potential assay utilized voltage-sensitive FRET sensors described by Gonzalez and Tsien (See, Gonzalez, J. E. and R. Y. Tsien (1995) “Voltage sensing by fluorescence resonance energy transfer in single cells” Biophys J 69(4): 1272-80, and Gonzalez, J. E. and R. Y. Tsien (1997) “Improved indicators of cell membrane potential that use fluorescence resonance energy transfer” Chem Biol 4(4): 269-77) in combination with instrumentation for measuring fluorescence changes such as the Voltage/Ion Probe Reader (VIPR®) (See, Gonzalez, J. E., K. Oades, et al. (1999) “Cell-based assays and instrumentation for screening ion-channel targets” Drug Discov Today 4(9): 431-439).
(§2) C) VIPR® Optical Membrane Potential Assay Method with Electrical Stimulation
(§3) The following is an example of how NaV1.3 inhibition activity is measured using the optical membrane potential method#2. Other subtypes are performed in an analogous mode in a cell line expressing the NaV of interest.
HEK293 cells stably expressing NaV1.3 are plated into 96-well microtiter plates. After an appropriate incubation period, the cells are stained with the voltage sensitive dyes CC2-DMPE/DiSBAC2(3) as follows.
Reagents: • 100 mg/mL Pluronic F-127 (Sigma #P2443), in dry DMSO • 10 mM DiSBAC2(3) (Aurora #00-100-010) in dry DMSO • 10 mM CC2-DMPE (Aurora #00-100-008) in dry DMSO • 200 mM ABSC1 in H2O • Hank's Balanced Salt Solution (Hyclone #SH30268.02) supplemented with 10 mM HEPES (Gibco #15630-080)
2×CC2-DMPE=20 μM CC2-DMPE: 10 mM CC2-DMPE is vortexed with an equivalent volume of 10% pluronic, followed by vortexing in required amount of HBSS containing 10 mM HEPES. Each cell plate will require 5 mL of 2×CC2-DMPE. 50 μL of 2×CC2-DMPE is to wells containing washed cells, resulting in a 10 μM final staining concentration. The cells are stained for 30 minutes in the dark at RT.
2×DISBAC2(3) with ABSC1=6 μM DISBAC2(3) and 1 mM ABSC1: The required amount of 10 mM DISBAC2(3) is added to a 50 ml conical tube and mixed with 1 μL 10% pluronic for each mL of solution to be made and vortexed together. Then HBSS/HEPES is added to make up 2× solution. Finally, the ABSC1 is added.
The 2× DiSBAC2(3) solution can be used to solvate compound plates. Note that compound plates are made at 2× drug concentration. Wash stained plate again, leaving residual volume of 50 μL. Add 50 uL/well of the 2× DiSBAC2(3) w/ABSC1. Stain for 30 minutes in the dark at RT.
The electrical stimulation instrument and methods of use are described in ION Channel Assay Methods PCT/US01/21652, herein incorporated by reference. The instrument comprises a microtiter plate handler, an optical system for exciting the coumarin dye while simultaneously recording the coumarin and oxonol emissions, a waveform generator, a current-or voltage-controlled amplifier, and a device for inserting electrodes in well. Under integrated computer control, this instrument passes user-programmed electrical stimulus protocols to cells within the wells of the microtiter plate. […]

In test [2] the target is NaV 1.7 channel (Homo sapiens, UniProt Q15858). Kind of test: Optical membrane potential assay, NaV 1.7 inhibition. The test is classed as cell-based. Conditions: activity against NaV 1.7 channel. The method, then:
as §1, §2, §3
(§4) The electrical stimulation instrument and methods of use are described in ION Channel Assay Methods PCT/US01/21652, herein incorporated by reference. The instrument comprises a microtiter plate handler, an optical system for exciting the coumarin dye while simultaneously recording the coumarin and oxonol emissions, a waveform generator, a current-or voltage-controlled amplifier, and a device for inserting electrodes in well. Under integrated computer control, this instrument passes user-programmed electrical stimulus protocols to cells within the wells of the microtiter plate.
(§5) Assay Protocol • 1 Insert or use electrodes into each well to be assayed. • 2. Use the current-controlled amplifier to deliver stimulation wave pulses for 3 s. Two seconds of pre-stimulus recording are performed to obtain the un-stimulated intensities. Five seconds of post-stimulation recording are performed to examine the relaxation to the resting state.
(§6) Data are analyzed and reported as normalized ratios of background-subtracted emission intensities measured in the 460 nm and 580 nm channels. Background intensities are then subtracted from each assay channel. Background intensities are obtained by measuring the emission intensities during the same time periods from identically treated assay wells in which there are no cells. The response as a function of time is then reported as the ratios obtained using the following formula: […]
(§7) The data is further reduced by calculating the initial (Ri) and final (Rf) ratios. These are the average ratio values during part or all of the pre-stimulation period, and during sample points during the stimulation period. The response to the stimulus , ρ=Rf/Ri is then calculated.
(§8) Control responses are obtained by performing assays in the presence of a compound with the desired properties (positive control) and in the absence of pharmacological agents (negative control). Responses to the negative (N) and positive (P) controls are calculated as above. The activity A of the assay well relative to positive and negative controls is defined as: […]

Test [3] deals with T2, NaV1.8 (Homo sapiens, UniProt Q9Y5Y9). Description: Optical membrane potential assay, NaV 1.8 inhibition. Conditions: activity against NaV 1.8 channel. The test is classed as cell-based. The procedure: as §1, §2, §3, §4, §5, §6, §7, §8
Target sequence in this assay (Q9Y5Y9 whole entry): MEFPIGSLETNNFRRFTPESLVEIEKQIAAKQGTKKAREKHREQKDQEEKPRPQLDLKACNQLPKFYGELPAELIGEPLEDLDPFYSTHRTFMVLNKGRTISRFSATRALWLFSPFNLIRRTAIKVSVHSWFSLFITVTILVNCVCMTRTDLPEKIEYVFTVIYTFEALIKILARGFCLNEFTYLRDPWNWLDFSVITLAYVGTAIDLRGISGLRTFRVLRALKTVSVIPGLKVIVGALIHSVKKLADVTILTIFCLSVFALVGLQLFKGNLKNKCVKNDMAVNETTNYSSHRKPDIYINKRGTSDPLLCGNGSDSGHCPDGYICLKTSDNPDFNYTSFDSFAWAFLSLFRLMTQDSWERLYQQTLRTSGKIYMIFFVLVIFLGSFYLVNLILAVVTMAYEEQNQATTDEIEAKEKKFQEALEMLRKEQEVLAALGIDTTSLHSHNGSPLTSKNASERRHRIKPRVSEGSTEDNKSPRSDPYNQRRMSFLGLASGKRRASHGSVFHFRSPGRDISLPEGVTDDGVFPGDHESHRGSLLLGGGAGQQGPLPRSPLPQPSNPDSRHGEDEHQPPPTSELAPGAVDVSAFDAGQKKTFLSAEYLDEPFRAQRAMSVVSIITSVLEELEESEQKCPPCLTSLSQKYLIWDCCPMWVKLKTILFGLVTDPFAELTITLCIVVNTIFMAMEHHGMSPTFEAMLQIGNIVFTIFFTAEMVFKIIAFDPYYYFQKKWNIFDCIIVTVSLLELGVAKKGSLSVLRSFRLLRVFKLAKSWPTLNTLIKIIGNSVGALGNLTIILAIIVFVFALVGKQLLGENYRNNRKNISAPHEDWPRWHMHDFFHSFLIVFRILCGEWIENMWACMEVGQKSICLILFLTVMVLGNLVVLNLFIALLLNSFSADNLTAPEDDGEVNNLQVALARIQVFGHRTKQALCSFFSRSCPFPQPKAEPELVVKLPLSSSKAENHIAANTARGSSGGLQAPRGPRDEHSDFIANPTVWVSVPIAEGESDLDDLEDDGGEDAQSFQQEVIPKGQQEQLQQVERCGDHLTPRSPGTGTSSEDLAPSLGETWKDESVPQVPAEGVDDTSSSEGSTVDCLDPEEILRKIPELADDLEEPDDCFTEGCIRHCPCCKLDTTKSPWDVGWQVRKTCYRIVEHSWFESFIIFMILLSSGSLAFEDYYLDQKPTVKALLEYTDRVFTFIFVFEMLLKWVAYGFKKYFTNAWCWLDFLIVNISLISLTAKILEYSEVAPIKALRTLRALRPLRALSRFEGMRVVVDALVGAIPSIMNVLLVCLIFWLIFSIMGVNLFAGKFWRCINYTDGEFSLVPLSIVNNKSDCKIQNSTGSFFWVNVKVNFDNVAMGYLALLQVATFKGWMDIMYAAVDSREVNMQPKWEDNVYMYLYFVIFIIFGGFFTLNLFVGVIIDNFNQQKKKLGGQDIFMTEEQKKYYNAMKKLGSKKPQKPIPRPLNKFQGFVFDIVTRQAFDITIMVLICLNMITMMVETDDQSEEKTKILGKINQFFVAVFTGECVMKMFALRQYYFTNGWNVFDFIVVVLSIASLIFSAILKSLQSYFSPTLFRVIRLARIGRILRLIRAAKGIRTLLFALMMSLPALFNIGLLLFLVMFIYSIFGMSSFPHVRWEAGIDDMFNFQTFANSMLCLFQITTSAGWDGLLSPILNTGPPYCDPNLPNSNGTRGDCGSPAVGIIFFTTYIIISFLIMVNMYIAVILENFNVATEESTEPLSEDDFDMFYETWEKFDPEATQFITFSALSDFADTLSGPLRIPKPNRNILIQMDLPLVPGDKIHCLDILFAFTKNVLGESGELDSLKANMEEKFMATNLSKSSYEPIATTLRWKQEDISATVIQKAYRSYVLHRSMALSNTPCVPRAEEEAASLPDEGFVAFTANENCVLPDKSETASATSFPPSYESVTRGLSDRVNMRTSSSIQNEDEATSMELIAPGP
The target in test [4] is NaV1.9 (Homo sapiens, UniProt Q9UI33). To be noted: read-out: TTX IC50; cited from earlier work.
The target of test [5] is T2, NaV1.8. Conditions: read-out: TTX IC50; cited from earlier work.
Target sequence in this assay (Q9Y5Y9 whole entry, looked up): as the sequence (Q9Y5Y9 whole entry) above
Test [6] concerns the target NaV1.1 (Homo sapiens, UniProt P35498). To be noted: read-out: TTX IC50; cited from earlier work.
Test [7] deals with NaV1.6 (Homo sapiens, UniProt Q9UQD0). To be noted: read-out: TTX IC50; cited from earlier work.
Test [8] concerns the target T1, NaV1.3. Conditions: read-out: TTX IC50; cited from earlier work.
The target in test [9] is NaV1.2 (Homo sapiens, UniProt Q99250). Conditions: read-out: TTX IC50; cited from earlier work.

Chain of NaV 1.7 channel (Q15858 whole entry): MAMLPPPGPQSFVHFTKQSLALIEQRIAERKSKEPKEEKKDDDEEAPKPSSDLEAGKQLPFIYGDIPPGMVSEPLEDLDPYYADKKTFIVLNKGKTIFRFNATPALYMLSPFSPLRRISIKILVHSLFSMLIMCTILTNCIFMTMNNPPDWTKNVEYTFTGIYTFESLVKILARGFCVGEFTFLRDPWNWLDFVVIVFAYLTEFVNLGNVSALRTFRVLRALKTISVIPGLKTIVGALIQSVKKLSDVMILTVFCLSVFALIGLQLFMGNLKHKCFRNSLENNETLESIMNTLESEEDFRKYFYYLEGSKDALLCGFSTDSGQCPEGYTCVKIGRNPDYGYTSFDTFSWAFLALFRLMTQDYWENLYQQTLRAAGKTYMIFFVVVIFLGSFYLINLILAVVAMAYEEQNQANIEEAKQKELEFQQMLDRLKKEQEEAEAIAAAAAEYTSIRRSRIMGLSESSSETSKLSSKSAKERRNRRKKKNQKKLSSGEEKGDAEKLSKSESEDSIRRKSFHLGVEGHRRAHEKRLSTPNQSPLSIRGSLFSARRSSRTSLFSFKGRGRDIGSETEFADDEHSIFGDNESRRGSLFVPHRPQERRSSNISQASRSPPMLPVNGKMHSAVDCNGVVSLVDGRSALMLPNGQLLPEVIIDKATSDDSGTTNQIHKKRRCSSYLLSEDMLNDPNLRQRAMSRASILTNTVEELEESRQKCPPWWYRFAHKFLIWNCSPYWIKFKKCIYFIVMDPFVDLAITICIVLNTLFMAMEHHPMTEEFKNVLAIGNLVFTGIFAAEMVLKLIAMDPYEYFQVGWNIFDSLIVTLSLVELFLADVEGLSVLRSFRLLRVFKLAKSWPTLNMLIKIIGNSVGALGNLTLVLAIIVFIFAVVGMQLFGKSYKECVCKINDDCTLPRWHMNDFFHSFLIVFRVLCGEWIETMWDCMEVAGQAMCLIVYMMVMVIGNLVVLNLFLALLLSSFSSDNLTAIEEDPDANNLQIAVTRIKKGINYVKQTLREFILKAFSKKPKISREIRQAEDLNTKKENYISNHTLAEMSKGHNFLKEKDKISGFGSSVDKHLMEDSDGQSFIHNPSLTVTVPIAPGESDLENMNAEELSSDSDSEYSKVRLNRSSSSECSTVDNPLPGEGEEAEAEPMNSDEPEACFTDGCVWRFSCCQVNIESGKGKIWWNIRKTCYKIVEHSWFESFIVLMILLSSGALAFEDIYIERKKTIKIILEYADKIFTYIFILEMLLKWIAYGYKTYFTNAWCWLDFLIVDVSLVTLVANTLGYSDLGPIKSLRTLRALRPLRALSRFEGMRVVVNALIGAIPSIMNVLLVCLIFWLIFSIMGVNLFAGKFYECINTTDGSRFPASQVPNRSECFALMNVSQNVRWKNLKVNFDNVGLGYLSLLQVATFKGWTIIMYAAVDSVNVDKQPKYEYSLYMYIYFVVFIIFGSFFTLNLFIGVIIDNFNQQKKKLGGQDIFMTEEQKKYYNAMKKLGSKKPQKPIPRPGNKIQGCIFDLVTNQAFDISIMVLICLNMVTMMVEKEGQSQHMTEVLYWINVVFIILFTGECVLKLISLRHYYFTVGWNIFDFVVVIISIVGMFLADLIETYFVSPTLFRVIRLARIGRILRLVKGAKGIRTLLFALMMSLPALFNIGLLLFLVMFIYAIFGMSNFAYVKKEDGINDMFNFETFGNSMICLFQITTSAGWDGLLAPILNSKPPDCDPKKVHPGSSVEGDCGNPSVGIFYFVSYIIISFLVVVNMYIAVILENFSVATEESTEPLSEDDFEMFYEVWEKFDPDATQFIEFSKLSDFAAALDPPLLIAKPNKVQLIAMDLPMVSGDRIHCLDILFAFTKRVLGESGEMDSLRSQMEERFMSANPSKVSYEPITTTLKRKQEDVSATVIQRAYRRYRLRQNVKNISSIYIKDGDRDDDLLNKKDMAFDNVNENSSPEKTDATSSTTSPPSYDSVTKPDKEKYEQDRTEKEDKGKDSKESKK

As a reminder, the IC50 is the concentration needed to halve the response being measured. With `Cc1oc(C(C)(C)C)cc1C(=O)Nc1cccc(S(N)(=O)=O)c1` [Compound 3], the IC50 in test [1] was above 20 µM; in test [2], 10 to 20 µM; in [3] it was below 2 µM.
`C[C@@H](c1ccc(F)cc1)N1CCN(Cc2oc(C(C)(C)C)cc2C(=O)Nc2cccc(S(N)(=O)=O)c2)CC1` [Compound 5]: the IC50 in test [1] lay in the range of 10 to 20 µM.
As for `CC(C)(C)c1cc(C(=O)Nc2cccc(S(N)(=O)=O)c2)c(CN2CCCCC2)o1` [Compound 6], the IC50 is above 20 µM in test [1] and 2 to 10 µM in test [3].
Consider `Cc1oc(CC(C)C)c(CN2CCOCC2)c1C(=O)Nc1cccc(S(N)(=O)=O)c1` [Compound 7], for which the IC50 in test [1] is above 20 µM; in test [2], 2 to 10 µM; in [3], 10 to 20 µM.
For the compound `Cc1oc(C(C)(C)C)c(CN2CCOCC2)c1C(=O)Nc1cccc(S(N)(=O)=O)c1` [Compound 8], the IC50 was above 20 µM in [1], 10 to 20 µM in [2] and above 20 µM in [3].
Regarding `CCN(CC)Cc1oc(-c2ccccc2)cc1C(=O)Nc1cccc(S(N)(=O)=O)c1` [Compound 9], the IC50 in test [1], in test [2] and in test [3] was 2 to 10 µM each time.
Consider `Cc1ccc(OCc2occc2C(=O)Nc2cccc(S(N)(=O)=O)c2)cc1` [Compound 10], for which the IC50 in [1] and in test [2] was above 20 µM in each case.
`Cc1oc(CC(C)C)c(CN2CCCC2)c1C(=O)Nc1cccc(S(N)(=O)=O)c1` [Compound 11]: the IC50 was 10 to 20 µM in test [1], 2 to 10 µM in test [2] and 10 to 20 µM in test [3].
`Cc1oc(CC(C)C)c(CN2CCCCC2)c1C(=O)Nc1cccc(S(N)(=O)=O)c1` [Compound 12]: the IC50 in [1] lay within 10 to 20 µM; in test [2], 2 to 10 µM; in test [3] it was 2 to 10 µM.
As for `Cc1oc(C(C)(C)C)c(CO)c1C(=O)Nc1cccc(S(N)(=O)=O)c1` [Compound 13], the IC50 in [1] was 10 to 20 µM; in [2], 10 to 20 µM; in test [3] it was below 2 µM.
`Cc1coc(C)c1C(=O)Nc1cccc(S(N)(=O)=O)c1` [Compound 14]: the IC50 in test [1], in test [2] and in test [3] was above 20 µM each time.
Consider `Cc1oc(C(C)(C)C)cc1C(=O)Nc1cccc(S(N)(=O)=O)c1` [Compound 18], for which the IC50 in test [1] is 10 to 20 µM; in test [2] it was 10 to 20 µM; in test [3], below 2 µM.
With `NS(=O)(=O)c1cccc(NC(=O)c2cc(-c3ccc(Cl)cc3)cs2)c1` [Compound 19], in test [1], the IC50 is 10 to 20 µM.
The same measure, in the same setting: the figure for `NS(=O)(=O)c1cc(NC(=O)c2cc(-c3cccc(Cl)c3)oc2C(F)(F)F)ccc1Cl` [Compound 20] is above 20 µM.
Regarding `NS(=O)(=O)c1cccc(NC(=O)c2cccnc2Oc2ccc(Cl)cc2)c1` [Compound 21], the IC50 in test [1] and in [3] was above 20 µM throughout.
Regarding `CC(C)(C)c1ccc(C(=O)Nc2cccc(S(N)(=O)=O)c2)cn1` [Compound 22, 6-tert-Butyl-N-(3-(aminosulfonyl)phenyl)pyridine-3-carboxamide], the IC50 in [1] is above 20 µM; in [2], above 20 µM; in [3] it was 10 to 20 µM.
Take `CC(C)(C)c1nnc(C(=O)Nc2cccc(S(N)(=O)=O)c2)s1` [Compound 23, 5-tert-Butyl-N-(3-sulfamoylphenyl)-1,3,4-thiadiazole-2-carboxamide]: the IC50 in test [1], in [2] and in test [3] was above 20 µM in each case.
In the case of `Cc1nc(C(C)(C)C)sc1C(=O)Nc1cccc(S(N)(=O)=O)c1` [Compound 24], the IC50 in test [1] and in test [2] was above 20 µM each time.
For `Cc1oc(C(C)(C)C)nc1C(=O)Nc1cccc(S(N)(=O)=O)c1` [Compound 25], the IC50 is above 20 µM in test [1], 10 to 20 µM in [2] and 10 to 20 µM in test [3].
`CC(C)(C)c1nc(C(=O)Nc2cccc(S(N)(=O)=O)c2)n(Cc2ccccc2)n1` [Compound 26, 5-tert-Butyl-2-benzyl-N-(3-(aminosulfonyl)phenyl)-2H-1,2,4-triazole-3-carboxamide]: the results for the IC50 in test [1] and in test [3] were above 20 µM and 10 to 20 µM, respectively.
As to `Cn1nc(C(C)(C)C)nc1C(=O)Nc1cccc(S(N)(=O)=O)c1` [Compound 27], the IC50 in test [1] is above 20 µM.
Regarding `NS(=O)(=O)c1cccc(NC(=O)c2ccc(-c3cccc(C(F)(F)F)c3)o2)c1` [Compound 29], the IC50 in test [1] was 2 to 10 µM; in test [2], 10 to 20 µM.
With `NS(=O)(=O)c1cccc(NC(=O)c2cc(-c3ccccc3)on2)c1` [Compound 30], in test [2], the IC50 was 10 to 20 µM.
On the same count and under the same terms, the figure for `COc1ccc(-c2cc(C(=O)Nc3cccc(S(N)(=O)=O)c3)on2)cc1` [Compound 31] is above 20 µM; for `COc1cccc(-c2cc(C(=O)Nc3cccc(S(N)(=O)=O)c3)no2)c1` [Compound 32] it is above 20 µM.
Take `NC1=N[C@H](O)[C@H]2[C@H]3O[C@]4(O)O[C@@H]([C@@H](O)[C@@]2(N1)[C@@H]4O)[C@]3(O)CO` [TTX, tetrodotoxin]: the IC50 in [4] is 1000 nM; in test [5] it was above 50 µM; in [6], 10 nM; in test [7], 6 nM; in test [8], 15 nM; in test [9], 10 nM.
